According to patent publication US20220054643A1, “SAPONIN CONJUGATED TO EPITOPE-BINDING PROTEINS” (priority 2018, published 2022):

How the values were obtained:
HER14 cells = experiment: viability assay (MTT) with HER14 cells; format: cell-based; conditions: 0.1 nM dianthin-EGF in the presence of SA1641
Procedure: To test the efficacy of the invention, we conducted a viability assay with HER14 cells. These cells are fibroblasts stably transfected with the human epidermal growth factor receptor and therefore target cells for the targeted toxin dianthin-EGF. HER14 cells (2,000 cells/100 μL/well) were seeded into wells of 96-well-cell culture plates and incubated for 24 h in DMEM medium supplemented with 10% fetal calf serum and 1% penicillin/streptomycin at 37° C., 5% CO2 and 98% humidity. The different test substances (see results and FIG. 59) were then added in triplicates in a volume of 25 μL and supplemented with further 25 μL of medium. After an incubation of 72 h, 30 μL 3-(4,5-dimethylthiazol-2-yl)-2,5-diphenyltetrazolium bromide (0.5 mg/mL in water) was added per well and incubated for 2 h. Thereafter, the medium was carefully removed and replaced by an aqueous solution containing 10% (v/v) isopropanol, 5% (w/v) sodium dodecyl sulfate and 400 mM HCl, and incubated for 5 min. Solubilized formazan was photometrically quantitated at […] in a microplate reader (Spectra MAX 340 PC, Molecular Devices, Sunnyvale, Calif., USA). Untreated cells were normalized to 1 and all samples referred to the untreated control. Significance was determined by unpaired two-sample t-tests.

A431 cells = format: cell-based, human; conditions: without EGFdianthin
Procedure: (§1) After treatment the cells were incubated for 72 hr at 37° C. before the cell viability was determined by a MTS-assay, performed according to the manufacturer's instruction (CellTiter 96® AQueous One Solution Cell Proliferation Assay, Promega). Briefly, the MTS solution was diluted 20× in DMEM without phenol red (PAN-Biotech GmbH) supplemented with 10% FBS (PAN-Biotech GmbH). The cells were washed once with 200 μL PBS per well, after which 100 μL diluted MTS solution was added per well.
(§2) The plate was incubated for approximately 20-30 minutes at 37° C. Subsequently, the optical density at 492 nm was measured on a Thermo Scientific Multiskan FC plate reader (Thermo Scientific). For quantification the background signal of ‘medium only’ wells was subtracted from all other wells, before the ratio of untreated/treated cells was calculated, by dividing the background corrected signal of untreated wells over the background corrected signal of the treated wells.

[1] = pH dependent hydrolysis of the hydrazone bond (MALDI-TOF-MS); format: physicochemical; conditions: HCl solution at pH 3; MALDI-TOF-MS at two points in time
A2058 cells = experiment: cell viability assay (MTS); format: cell-based, human; conditions: without EGFdianthin
Procedure: as §1, §2

HeLa cells = experiment: cell viability assay (MTS); format: cell-based, human; conditions: for concentration above which toxicity is seen as single compound: without EGFdianthin
Procedure: as §1, §2

[2] = tested on: SK-BR-3, JIMT-1, MDA-MB-468, A431, CaSki, HeLa, A2058; experiment: control treatments, relative cell viability on various cancer cell lines; format: cell-based, human; conditions: wide range of concentrations, up to 100.000 pM
Procedure: as §1, §2

Compound	concentration above which toxicity is seen as single compound (A431 cells)	concentration above which toxicity is seen as single compound (A2058 cells)	concentration above which toxicity is seen as single compound (HeLa cells)	further results
C[C@@H]1O[C@@H](O[C@H]2[C@H](OC(=O)[C@]34CCC(C)(C)C[C@H]3C3=CC[C@@H]5[C@@]6(C)CC[C@H](O[C@H]7O[C@H](C(=O)O)[C@@H](O)[C@H](O[C@@H]8OC[C@@H](O)[C@H](O)[C@H]8O)[C@H]7O[C@@H]7O[C@H](CO)[C@H](O)[C@H](O)[C@H]7O)[C@@](C)(C=O)[C@@H]6CC[C@@]5(C)[C@]3(C)CC4)O[C@H](C)[C@H](O[C@@H]3O[C@H](C)[C@@H](O)[C@H](O)[C@H]3O)[C@@H]2O)[C@H](O)[C@H](O)[C@H]1O[C@@H]1OC[C@@H](O)[C@H](O[C@@H]2OC[C@@H](O)[C@H](O)[C@H]2O)[C@H]1O [SA1641]				cell viability (HER14 cells): death of all cells
CC(=O)OC1C(C)OC(OC2C(C)OC(OC(=O)[C@]34CCC(C)(C)CC3C3=CCC5[C@@]6(C)CC[C@H](OC7OC(C(=O)O)C(O)C(OC8OCC(O)C(O)C8O)C7OC7OC(CO)C(O)C(O)C7O)[C@@](C)(/C=N/NC(=O)CCCCCN7C(=O)C=CC7=O)C6CC[C@@]5(C)[C@]3(C)C[C@H]4O)C(OC3OC(C)C(OC4OCC(O)C(OC5OC(CO)C(O)C(O)C5O)C4O)C(O)C3O)C2O)C(O)C1OC1OCC(O)C(O)C1O (stereo partly shown) [SO1861-EMCH]	> 25.000 nM	> 25.000 nM	> 25.000 nM	hydrolysis of the hydrazone bond [1]: gets cleaved
CC(=O)OC1C(C)OC(OC2C(C)OC(OC(=O)[C@]34CCC(C)(C)CC3C3=CCC5[C@@]6(C)CC[C@H](OC7OC(C(=O)O)C(O)C(OC8OCC(O)C(O)C8O)C7OC7OC(CO)C(O)C(O)C7O)[C@@](C)(C=O)C6CC[C@@]5(C)[C@]3(C)C[C@H]4O)C(OC3OC(C)C(OC4OCC(O)C(OC5OC(CO)C(O)C(O)C5O)C4O)C(O)C3O)C2O)C(O)C1OC1OCC(O)C(O)C1O (stereo partly shown) [SO1861]	strong cell viability reduction	strong cell viability reduction	strong cell viability reduction	
CCN(CC)CCCC(C)Nc1ccnc2cc(Cl)ccc12 (stereo not shown) [chloroquine, reference compound]				effect on SO1861-mediated endosomal escape of dianthin-EGF and cell killing (HeLa cells; SO1861 + dianthin-EGF + 500 nM chloroquine / 500 nM PAMAM (native, thiolated, PEGylated) / 667 nM dendron): inhibit the SO1861-mediated endosomal escape
saporin				influence on relative cell viability [2]: do not or hardly have any influence on cell viability
